# Patent EP0369810A2, “PAF antagonists as anti-hyperendothelinemia agents” (Takeda Chemical Industries, Ltd., priority 1988, dated 1990)
# Read-outs that look alike come from different tables or passages of the source. Marks after values point to notes of the source that are not given here.
# Assays:
# endothelin [1] = test: Protective effects against arrhythmia-inducing activity of endothelin in rats (electrocardiogram); assay type: in vivo, rat; conditions: anesthetized rats; for PVB counts (15 min.): premature ventricular beats; for VF incidence: ventricular fibrillation; for VT incidence: ventricular tachycardia
# Description: Male SD-Jcl rats (9 weeks old) were anesthetized with pentobarbital (50 mg/kg, intraperitoneal injection), and electrocardiogram (Lead II) was monitored on a polygraph. A drug was dissolved in physiological saline and given via the tail vein in a volume of 1 ml/kg. Five minutes later, endothelin (5 nmol/kg) was intravenously administered. In the case of oral administration, a drug was given in 10 ml/kg of 5% gum arabic suspension one hour before the administration of endothelin.
# [2] = system: cultured rat vascular smooth muscle cells; test: Inhibition of endothelin-induced elevation of cytosolic calcium concentration (fura-2 fluorescence); assay type: cell-based; conditions: endothelin 4 x 10-^9 M, read-out: Inhibitory activity (%); for inhibition at 0.4 µM: compound 4 x 10^-7 M; for inhibition at 0.04 µM: compound 4 x 10^-8 M; for inhibition at 4 µM: compound 4 x 10^-6 M
# Description: A glass cover slide coated with 4 µM fura-2-loaded cultured rat vascular smooth muscle cells was inserted into a quartz cuvette which contained 2.5 ml HEPES buffer (pH 7.2). On this occasion, the glass cover slide was fixed on a diagonal of 45° to the direction of excitation light. The fluoroscence was measured in a Hitachi F-4000 spectrofluorimeter. Wavelengths were set at 340 nm and 380 nm for excitation and 505 nm for emission. Fmax and Fmin were estimated after addition of ionomycin (2 µM; Calbiochem) as calcium ionophore and EGTA (8 mM) as calcium ion-chelator, respectively. The cytosolic calcium ion concentration [Ca^++]i values were calculated by Tsien et al. formula: [Ca^++]-i = kd*(F-Fmin)/(Fmax-F) with modifications assuming kd = 224 nM, i.e. by the formulas: • [Ca^++]i = kd*(R-Rmin)*Sf2/(Rmax-R)*Sb2 • R = [D(W1)-AutoF1]/[D(W2)-AutoF2] • D(Wi) : Determined value at wavelength for excitation W1 • D(W2) : Determined value at wavelength for excitation W2 • AutoF1 : self-fluoroscence at W1 • AutoF2 self-fluoroscence at W2 • Rmin : R in zero Ca^++ = Fmin (W1)/Fmin (W2) • Rmax : R in Ca^++-saturated concentration = Fmax (W1)/Fmax (W2) • Sf2 : strength of fluoroscence by free Ca^++ at W2 • Sb2 : strength of fluoroscence by bound Ca^++ at W2 The experiments were carried out as follows: PAF antagonists, the compounds [II], [IV] and [Vllla], were added to the solution in the cuvette. Incubation was conducted for 5 minutes and then endothelin (4 x 10-^9 M) was added to observe changes of strength of fluoroscence.
# endothelin [3] = test: Protective effects against endothelin-induced death in rats; assay type: in vivo; conditions: rat, survival 1 h after endothelin
# Description: (§1) Male SD-Jcl rats (5-6 weeks old) and male Jcl-ICR mice (5-6 weeks 01 d) were used without anesthetization.
# (§2) Physiological saline or drug-dissolved physiological saline was given via the tail vein to a rat in a volume of 1 ml/kg and to a mouse in a volume of 5 ml/kg. Five minutes later, the same volume of endothelin (Peptide Institute; 5 nmol/kg)-dissolved physiological saline was intravenously given.
# (§3) In the case of oral administration of a drug, the drug was given in 10 ml/kg of 5% gum arabic suspension one hour before the administration of endothelin.
# (§4) One hour after the administration of endothelin, the survival rates were measured, and the effect of the drug was evaluated.
# Acute toxicities = conditions: rat, in vivo
# Description: PAF antagonists were administered to male Wistar rats (4-6 weeks old) to observe the acute toxicities.
# endothelin [4] = test: Protective effects against endothelin-induced death in mice; assay type: in vivo; conditions: mouse, survival 1 h after endothelin
# Description: as §1, §2, §3, §4
# glomerulonephritic rats = test: Antiproteinuric action in glomerulonephritic rats; assay type: in vivo, rat; conditions: urinary excretion; 100 mg/kg p.o. once a day for 4 weeks
# Description: Glomerulonephritis in rats was prepared according to the method by Nagamatsu et al. (Folia Pharmacol. Jpn. 78, 491, 1981). The mixture of 3 mg rabbit serum albumin (RSA) and the same amount of complete Freund's adjuvant was prepared. One ml/rat (3 mg/rat) of the mixture was first injected subcutaneously to 5 weeks old Spraque Dawley (Jcl) rats. 2 weeks later, RSA (1 mg/rat) was injected intravenously 3 times a week for 8 weeks. At the point of RSA injection for the first 4 weeks, urine was collected from the rat for 24 hours to measure urinary excretion of albumin and total protein. According to the value of albumin and total protein obtained, the rats were separated into 2 groups of the control and the treatment group. Then, the drug or vehicle was orally given once a day for 4 weeks and the 24 hour-urine at the 4 week of the dosage was collected for measurement of urinary albumin and total protein.
# M-SHRsp = test: Protective action on ischemic cerebral damage in M-SHRsp (bilateral carotid occlusion and reperfusion); assay type: in vivo, rat; conditions: 24 hour reperfusion
# Description: Male malignant spontaneously hypertensive rats (M-SHRsp), 8 weeks old, were used. The carotid artery was occluded bilaterally for 1 hour under conscious condition followed by reperfusion for 24 hours. The drug was orally given 1 hour prior to the occlusion of the artery. The survival rate of rats was estimated during the 24 hour reperfusion.
# [5] = system: Male Spraque Dawley (Jcl) rats; test: Effect on acute renal failure in rats (bilateral renal artery occlusion and reperfusion); assay type: in vivo, rat; conditions: oral dose of 30 mg/kg 1 hour prior to occlusion; 45 min occlusion, 20 hours reperfusion
# Description: Male Spraque Dawley (Jcl) rats, 5 weeks old, were anesthetized with sodium pentobarbital (50 mg/kg, i.p.) and the renal artery was occluded bilaterally for 45 minutes followed by reperfusion for 20 hours. The blood was collected from the abdominal aorta under anesthesia for measurement of blood urea nitrogen (BUN).
# [6] = 1 mg/kg i.v. 5 min before endothelin 5 nmol/kg i.v.
# [7] = sustained increase of cytosolic calcium
# [8] = transient increase of cytosolic calcium
# [9] = 3 mg/kg i.v. 5 min before endothelin 5 nmol/kg i.v.
# [10] = 100 mg/kg p.o. 1 h before endothelin 5 nmol/kg i.v.
# [11] = 30 mg/kg p.o. 1 h before endothelin 5 nmol/kg i.v.
# [12] = 30 mg/kg i.v. 5 min before endothelin 5 nmol/kg i.v.
smiles,measurement,setting,value
"CCCCCCCCCCCCCCCCCCNC(=O)OCC(COC(=O)N(Cc1cccc[n+]1CC)C(C)=O)OC.[Cl-] (stereo not drawn) [Compd [II], 2-[N-acetyl-N-(2-methoxy-3-octadecylcarbamoyloxypropoxycarbonyl)-aminomethyl]-1-ethylpyridinium chloride]",PVB counts (15 min.),endothelin [1]; [6],9±8
same,VF incidence,endothelin [1]; [6],2/9**
same,VT incidence,endothelin [1]; [6],3/9**
same,inhibition at 0.4 µM,[2]; [7],100%
same,inhibition at 0.04 µM,[2]; [7],100%
same,inhibition at 4 µM,[2]; [8],100%
same,inhibition at 0.4 µM,[2]; [8],100%
same,Protective effect to death Survival Rate (%),endothelin [3]; [9],94** %
same,Protective effect to death Survival Total,endothelin [3]; [9],15/16
same,LD50,"Acute toxicities; iv, male Wistar rats",> 20 mg/kg
same,Protective effect to death Survival Rate (%),endothelin [4]; [9],100** %
same,Protective effect to death Survival Total,endothelin [4]; [9],10/10
"COc1cc2c(cc1OC)CCCC(C(=O)N1CCN(C(=O)c3cc(OC)c(OC)c(OC)c3)CC1)=C2 [Compd [IV], 1-(2,3-dimethoxy-6,7-dihydro-5H-benzocycloheptenyl-8-carbonyl)-4-(3,4,5-trimethoxybenzoyl)piperazine]",inhibition at 0.4 µM,[2]; [7],52.6%
same,inhibition at 0.4 µM,[2]; [8],76.2%
same,albumin,glomerulonephritic rats,17 ± 11 mg/100 g/24 hr
same,total protein,glomerulonephritic rats,43 ± 16 mg/100 g/24 hr
same,Survival rate (24 hr),M-SHRsp; 1 mg/kg p.o. 1 hour prior to occlusion,2/7
same,Survival rate (24 hr),M-SHRsp; 10 mg/kg p.o. 1 hour prior to occlusion,6/7*
same,Survival rate (24 hr),"M-SHRsp; 10 mg/kg p.o. 1 hour prior to occlusion, listed as compound [IV]",6 out of 7
same,Survival rate (24 hr),M-SHRsp; 100 mg/kg p.o. 1 hour prior to occlusion,4/4*
same,Survival rate (24 hr),"M-SHRsp; 100 mg/kg p.o. 1 hour prior to occlusion, listed as compound [IV]",all out of 4
same,LD50,Acute toxicities; po,> 1000 mg/kg
same,Protective effect to death Survival Rate (%),endothelin [4]; [10],100** %
same,Protective effect to death Survival Total,endothelin [4]; [10],15/15
"Cc1nnc2n1-c1sc(CCC(=O)N3CCOCC3)cc1C(c1ccccc1Cl)=NC2 [Compd [IX], reference compound]",PVB counts (15 min.),endothelin [1]; [11],12±5
same,VF incidence,endothelin [1]; [11],4/6**
same,VT incidence,endothelin [1]; [11],4/6**
same,Protective effect to death Survival Rate (%),endothelin [3]; [11],40** %
same,Protective effect to death Survival Total,endothelin [3]; [11],6/15
same,Protective effect to death Survival Rate (%),endothelin [4]; [11],53** %
same,Protective effect to death Survival Total,endothelin [4]; [11],8/15
CCC[n+]1cc(Br)cc(C(=O)N(CCC(=O)NCCOC(=O)N2CCc3ccccc3C2)c2ccccc2)c1 [Compd [VIIIb]],Blood urea nitrogen (BUN),[5],88 ± 2 mg/dL
"CCCCCCCCCCCCCCCCCCNC(=O)OCC(COP(=O)([O-])OCC[n+]1ccsc1)OC (stereo not drawn) [Compd [VI], 3-(N-n-octadenylcarbamoyloxy)-2-methoxypropyl 2-thiazolioethyl phosphate]",LD50,"Acute toxicities; iv, male Wistar rats",> 50 mg/kg
same,Protective effect to death Survival Rate (%),endothelin [4]; [12],36* %
same,Protective effect to death Survival Total,endothelin [4]; [12],5/14
CCC[n+]1cc(Br)cc(C(=O)N(CCC(=O)NCCOC(=O)N2CCc3ccccc3C2)c2ccccc2)c1 [[VIIIa]],inhibition at 0.4 µM,[2]; [7],100%
same,inhibition at 0.04 µM,[2]; [7],72.1%
same,inhibition at 4 µM,[2]; [8],78.2%
same,inhibition at 0.4 µM,[2]; [8],64.2%
